Values of other authors in patent publication US20230405112A1, “PHARMACEUTICAL COMPOSITION, PHARMACEUTICAL COMBINED FORMULATION, AND COMBINED FORMULATION KIT FOR PREVENTION OR TREATMENT OF CHRONIC HEPATITIS B, EACH COMPRISING, AS ACTIVE INGREDIENT, ORAL ANTIVIRAL AGENT AND THERAPEUTIC VACCINE INCLUDING LIPOPEPTIDE AND POLY(I:C) ADJUVANT” (CHA VACCINE RESEARCH INSTITUTE CO., LTD, priority 2020, published 2023).
Several values for one entry are separate records, joined by “and”; a condition that tells them apart may be missing. Equal values may be shown once. Where a name gives a salt, the structure may show the parent alone. Read-outs that look alike come from different tables or passages of the source.

Columns and labels:
[1] = tested on: hepatitis B virus; conditions: after 1 year of treatment
[2] = tested on: hepatitis B virus; conditions: Chinese patients; 7 years
[3] = tested on: hepatitis B virus
[4] = tested on: hepatitis B virus; remark: listed apart in the source
[5] = tested on: hepatitis B virus; remark: listed apart in the source
[6] = tested on: virus-specific cytotoxic T lymphocytes (CTLs); conditions: combined with an influenza virus T cell epitope; administered to mice
[7] = HBeAg(+), phase 3, 2 year results
[8] = baseline HBeAg(+), 1 year (week 48)
[9] = baseline HBeAg(+), 2 years (week 96)
[10] = baseline HBeAg(−), 1 year (week 48)
[11] = baseline HBeAg(−), 2 years (week 96)
[12] = HBeAg(+), 3-year follow-up, (non-Asian)
[13] = HBeAg(+), phase 3, 1 year, (non-Asian)
[14] = all patients, 10-year follow-up

Molecule: CC(C)(C)C(=O)OCOP(=O)(COCCn1cnc2c(N)ncnc21)OCOC(=O)C(C)(C)C [ADV, Adefovirdipivoxil]
- ALT nomalisatioin ([1]; HBeAg(+) patients): 48~54%
- Anti-Hbe-seroconversion ([1]; HBeAg(+) patients): 12~18%
- HBV DNA <60~80 IU/ml ([1]; HBeAg(+) patients): 13~21%
- HBs Ag loss ([1]; HBeAg(+) patients): 0%
- ALT nomalisatioin ([1]; HBeAg(−) patients): 72~77%
- HBV DNA <60~80 IU/ml ([1]; HBeAg(−) patients): 51~63%
- HBs Ag loss ([1]; HBeAg(−) patients): 0%

Molecule: C=C1[C@H](CO)[C@@H](O)C[C@@H]1n1cnc2c(=O)[nH]c(N)nc21 [Entecavir]
- ALT nomalisatioin ([1]; HBeAg(+) patients): 68%
- Anti-Hbe-seroconversion ([1]; HBeAg(+) patients): 21%
- HBV DNA <60~80 IU/ml ([1]; HBeAg(+) patients): 67%
- HBs Ag loss ([1]; HBeAg(+) patients): 2%
- ALT nomalisatioin ([1]; HBeAg(−) patients): 78%
- HBV DNA <60~80 IU/ml ([1]; HBeAg(−) patients): 90%
- HBs Ag loss ([1]; HBeAg(−) patients): 0%
- HBeAg seroconversion rate (Kaplan-meier analysis) [2]: 82.1%
- HBsAg loss (%) [2]: 2.5%
- HBsAg loss, patients [2]: 4 of 160
- HBeAg seroconversion (%) ([3]; 5 year results): 23%
- HBeAg seroconversion n/N ([3]; 5 year results): 33/141
- HBsAg loss (%) ([3]; HBeAg(+), 5 year results): 1.4%
- HBsAg loss n/N ([3]; HBeAg(+), 5 year results): 2/145
- HBsAg loss (%) [3, 7]: 5%
- HBsAg loss n/N [3, 7]: 18/354
- HBsAg seroconversion (%) [3, 7]: 2%
- HBsAg seroconversion n/N [3, 7]: 6/354
- HBeAg seroconversion (%) ([3]; phase 3, 2 year results): 31%
- HBeAg seroconversion n/N ([3]; phase 3, 2 year results): 110/354

Molecule: Nc1ccn([C@@H]2CS[C@H](CO)O2)c(=O)n1 [LAM, Lamivudine]
- ALT nomalisatioin ([1]; HBeAg(+) patients): 41~72%
- Anti-Hbe-seroconversion ([1]; HBeAg(+) patients): 16~18%
- HBV DNA <60~80 IU/ml ([1]; HBeAg(+) patients): 36~44%
- HBs Ag loss ([1]; HBeAg(+) patients): 0~1%
- ALT nomalisatioin ([1]; HBeAg(−) patients): 71~79%
- HBV DNA <60~80 IU/ml ([1]; HBeAg(−) patients): 72~73%
- HBs Ag loss ([1]; HBeAg(−) patients): 0%

Molecule: CC(C)OC(=O)[C@H](C)N[P@](=O)(CO[C@H](C)Cn1cnc2c(N)ncnc21)Oc1ccccc1 [TAF, Tenofoviralafenamide fumarate]
- ALT nomalisatioin ([1]; HBeAg(+) patients): 72%
- Anti-Hbe-seroconversion ([1]; HBeAg(+) patients): 10%
- HBV DNA <60~80 IU/ml ([1]; HBeAg(+) patients): 64%
- HBs Ag loss ([1]; HBeAg(+) patients): 1%
- ALT nomalisatioin ([1]; HBeAg(−) patients): 83%
- HBV DNA <60~80 IU/ml ([1]; HBeAg(−) patients): 94%
- HBs Ag loss ([1]; HBeAg(−) patients): 0%
- HBeAg loss (%) ([4]; Total, 1 year (week 48)): (14%)
- HBeAg loss n/N ([4]; Total, 1 year (week 48)): 78/565
- HBsAg loss n/N ([4]; Total, 1 year (week 48)): 4/861
- HBeAg loss (%) ([4]; Total, 2 years (week 96)): (22%)
- HBeAg loss n/N ([4]; Total, 2 years (week 96)): 123/565
- HBsAg loss (%) ([4]; Total, 2 years (week 96)): (<1%)
- HBsAg loss n/N ([4]; Total, 2 years (week 96)): 8/861
- HBeAg seroconversion (%) ([4]; baseline HBeAg(+), 1 year): (10%)
- HBeAg seroconversion n/N ([4]; baseline HBeAg(+), 1 year): 58/565
- HBsAg seroconversion (%) ([4]; baseline HBeAg(+), 1 year): (1%)
- HBsAg seroconversion n/N ([4]; baseline HBeAg(+), 1 year): 3/576
- HBeAg loss n/N [4, 8]: 78/565
- HBsAg loss n/N [4, 8]: 4/576
- HBeAg seroconversion (%) ([4]; baseline HBeAg(+), 2 years): (18%)
- HBeAg seroconversion n/N ([4]; baseline HBeAg(+), 2 years): 99/565
- HBsAg seroconversion (%) ([4]; baseline HBeAg(+), 2 years): (1%)
- HBsAg seroconversion n/N ([4]; baseline HBeAg(+), 2 years): 6/576
- Average reduction of HBsAg [4, 9]: −0.51 log10IU/ml
- HBeAg loss n/N [4, 9]: 123/565
- HBsAg loss n/N [4, 9]: 7/576
- HBsAg seroconversion n/N ([4]; baseline HBeAg(−), 1 year): 0
- HBsAg loss n/N [4, 10]: 0
- HBsAg seroconversion (%) ([4]; baseline HBeAg(−), 2 years): (<1%)
- HBsAg seroconversion n/N ([4]; baseline HBeAg(−), 2 years): 1/281
- Average reduction of HBsAg [4, 11]: −0.14 log10IU/ml
- HBsAg loss (%) [4, 11]: (<1%)
- HBsAg loss n/N [4, 11]: 1/281

Molecule: Cc1cn([C@@H]2C[C@@H](O)[C@H](CO)O2)c(=O)[nH]c1=O [TBV, Telbivudine]
- ALT nomalisatioin ([1]; HBeAg(+) patients): 77%
- Anti-Hbe-seroconversion ([1]; HBeAg(+) patients): 22%
- HBV DNA <60~80 IU/ml ([1]; HBeAg(+) patients): 60%
- HBs Ag loss ([1]; HBeAg(+) patients): 0.5%
- ALT nomalisatioin ([1]; HBeAg(−) patients): 74%
- HBV DNA <60~80 IU/ml ([1]; HBeAg(−) patients): 88%
- HBs Ag loss ([1]; HBeAg(−) patients): 0%

Molecule: CC(C)OC(=O)OCOP(=O)(CO[C@H](C)Cn1cnc2c(N)ncnc21)OCOC(=O)OC(C)C [TDF, Tenofovirdisoproxil fumarate]
- ALT nomalisatioin ([1]; HBeAg(+) patients): 68%
- Anti-Hbe-seroconversion ([1]; HBeAg(+) patients): 21%
- HBV DNA <60~80 IU/ml ([1]; HBeAg(+) patients): 76%
- HBs Ag loss ([1]; HBeAg(+) patients): 3%
- ALT nomalisatioin ([1]; HBeAg(−) patients): 76%
- HBV DNA <60~80 IU/ml ([1]; HBeAg(−) patients): 93%
- HBs Ag loss ([1]; HBeAg(−) patients): 0%
- HBeAg loss (%) ([4]; Total, 1 year (week 48)): (12%)
- HBeAg loss n/N ([4]; Total, 1 year (week 48)): 34/285
- HBsAg loss (%) ([4]; Total, 1 year (week 48)): (<1%)
- HBsAg loss n/N ([4]; Total, 1 year (week 48)): 1 out of 428 and 1/428
- HBeAg loss (%) ([4]; Total, 2 years (week 96)): (18%)
- HBeAg loss n/N ([4]; Total, 2 years (week 96)): 51/285
- HBsAg loss (%) ([4]; Total, 2 years (week 96)): (<1%)
- HBsAg loss n/N ([4]; Total, 2 years (week 96)): 4/428
- HBeAg seroconversion (%) ([4]; baseline HBeAg(+), 1 year): (8%)
- HBeAg seroconversion n/N ([4]; baseline HBeAg(+), 1 year): 23/285
- HBsAg seroconversion n/N ([4]; baseline HBeAg(+), 1 year): 0
- HBeAg loss n/N [4, 8]: 34/285
- HBsAg loss n/N [4, 8]: 1/288
- HBeAg seroconversion (%) ([4]; baseline HBeAg(+), 2 years): (12%)
- HBeAg seroconversion n/N ([4]; baseline HBeAg(+), 2 years): 35/285
- HBsAg seroconversion n/N ([4]; baseline HBeAg(+), 2 years): 0
- Average reduction of HBsAg [4, 9]: −0.64 log10IU/ml
- HBeAg loss n/N [4, 9]: 51/285
- HBsAg loss n/N [4, 9]: 4/288
- HBsAg seroconversion n/N ([4]; baseline HBeAg(−), 1 year): 0
- HBsAg loss n/N [4, 10]: 0
- HBsAg seroconversion n/N ([4]; baseline HBeAg(−), 2 years): 0
- Average reduction of HBsAg [4, 11]: −0.10 log10IU/ml
- HBsAg loss n/N [4, 11]: 0
- HBeAg loss (%) ([5]; HBeAg(+), 3-year follow-up): 34%
- HBeAg seroconversion (%) ([5]; HBeAg(+), 3-year follow-up): 26%
- HBsAg loss (%) [kaplan-meier] [5, 12]: 8%
- HBsAg seroconversion (%) [kaplan-meier] [5, 12]: 6%
- HBsAg seroconversion, n patients [5, 12]: (n = 15)
- HBeAg loss n/N ([5]; HBeAg(+), 7-year follow-up): 84/154
- HBeAg seroconversion n/N ([5]; HBeAg(+), 7-year follow-up): 61/154
- HBsAg loss (%) [kaplan-meier] ([5]; HBeAg(+), 7-year follow-up): 11.8%
- HBsAg loss, n patients ([5]; HBeAg(+), 7-year follow-up): (n = 27)
- HBsAg seroconversion (%) [kaplan-meier] ([5]; HBeAg(+), 7-year follow-up): 9.7%
- HBsAg seroconversion, n patients ([5]; HBeAg(+), 7-year follow-up): (n = 21)
- HBeAg loss n/N ([5]; HBeAg(+), 10-year follow-up): 12/23
- HBeAg seroconversion n/N ([5]; HBeAg(+), 10-year follow-up): 6/22
- HBsAg loss n/N ([5]; HBeAg(+), 10-year follow-up, (non-Asian)): 4/81
- HBeAg seroconversion n/N ([5]; HBeAg(+), phase 3, 1 year): 32/153
- HBsAg loss n/N [5, 13]: 5/158
- HBsAg seroconversion n/N [5, 13]: 2/158
- HBsAg loss n/N ([5]; HBeAg(−), 3-year follow-up): 0
- HBsAg seroconversion n/N ([5]; HBeAg(−), 3-year follow-up): 0
- HBsAg seroconversion n/N ([5]; HBeAg(−), 7-year follow-up): 0
- HBsAg loss n/N ([5]; HBeAg(−), 10-year follow-up, (non-Asian)): 4/117
- HBsAg loss n/N ([5]; HBeAg(−), phase 3, 1 year): 0
- HBsAg seroconversion n/N ([5]; HBeAg(−), phase 3, 1 year): 0
- HBsAg loss (%) [5, 14]: 4.0%
- HBsAg loss n/N [5, 14]: 8/198
- HBsAg loss, number of patients ([5]; all patients, over 7 years): 28
- change of HBsAg levels ([5]; patients first receiving oral antiviral agent, after 2 years (96 weeks), FIG. 1): no significant change

Molecule: Pam3Cys-Ser-Ser
- virus-specific cytotoxic T lymphocytes (CTLs) [6]: induced
